Test results published in patent publication US11655216B2 (priority 2016, dated 2023).
pEC50: −log10 of the molar value. Like-named read-outs stand apart in the source and are kept apart here.

Columns and labels:
[1] = target: T1, glutathione-S-transferase (GST) tagged LXRbeta LBD (ligand binding domain) (Homo sapiens, UniProt P55055); assay: LanthaScreen TR-FRET Liver X Receptor Coactivator Assay, LXR beta; type: biochemical; details: for pEC50: LXR beta IP, potency (Inflection Point), compound-induced co-activator recruitment, TR-FRET; for Emax: read-out: LXR beta actiivty at max dose, efficacy (% Emax) in relation to reference dual agonist T0901317
T1 construct: purchased Invitrogen pv4658
T1 sequence (P55055 222-460 limits assumed): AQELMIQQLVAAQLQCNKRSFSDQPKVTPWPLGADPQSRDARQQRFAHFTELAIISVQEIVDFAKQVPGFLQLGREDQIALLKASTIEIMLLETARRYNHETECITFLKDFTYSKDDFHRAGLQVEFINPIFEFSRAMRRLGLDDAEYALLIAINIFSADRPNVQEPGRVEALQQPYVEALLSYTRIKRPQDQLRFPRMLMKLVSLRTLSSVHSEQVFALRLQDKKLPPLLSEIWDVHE
Method: (§1) While running the LanthaScreen™ TR-FRET Liver X Receptor Coactivator Assay, LXR alpha-LBD or LXR beta-LBD was added to ligand test compounds followed by addition of a mixture of a fluorescein-labelled coactivator peptide and terbium-conjugated anti-GST antibody. After an incubation period at room temperature, TR-FRET (time-resolved fluorescence resonance energy transfer) was measured using a filter-based instrument capable of TR-FRET, e.g. PerkinElmer Envision.

[2] = target: T2, glutathione-S-transferase (GST) tagged LXRalpha LBD (ligand binding domain) (Homo sapiens, UniProt Q13133); assay: biochemical; details: for pEC50: LXR alpha IP; for pEC50 / LXR alpha IP: potency (Inflection Point), compound-induced co-activator recruitment, TR-FRET
T2 construct: purchased Invitrogen pv4655
T2 sequence (Q13133 209-447 limits assumed): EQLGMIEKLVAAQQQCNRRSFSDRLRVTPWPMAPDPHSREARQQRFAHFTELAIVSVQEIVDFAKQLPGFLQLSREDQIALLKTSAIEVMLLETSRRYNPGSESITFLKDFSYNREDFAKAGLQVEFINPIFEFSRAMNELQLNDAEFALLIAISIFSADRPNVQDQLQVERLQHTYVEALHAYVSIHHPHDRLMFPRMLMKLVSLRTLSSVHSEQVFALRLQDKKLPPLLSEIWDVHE
Method: as §1

[3] = read-out: LXR alpha actiivty at max dose, efficacy (% Emax) in relation to reference dual agonist T0901317

Compound | pEC50 [1] | Emax [1] | pEC50 [2] | Emax [2, 3] | Emax ([2]; efficacy (% Emax) in relation to reference dual agonist T0901317, read-out: LXR alpha actiivty at max dose) | LXR alpha IP [2]
COc1cccc([C@@](O)(C(=O)N2CCC(CCCCOc3ccc(C(=O)N(C)C)c(C#N)n3)CC2)C(F)(F)F)c1 (single isomer, unassigned) [Example 4-2, (R or S)-2-cyano-N,N-dimethyl-6-(4-(1-(3,3,3-trifluoro-2-hydroxy-2-(3-methoxyphenyl)propanoyl)piperidin-4-yl)butoxy) nicotinamide] | 7.92 | 81% | 6.31 | 28% |  | 
COc1cccc(C(O)(C(=O)N2CCC(CCCCOc3ccc(C(=O)N(C)C)c(OC)c3)CC2)C(F)(F)F)c1 (single isomer, unassigned) [Example 5-1, (R or S)-2-methoxy-N,N-dimethyl-4-(4-(1-(3,3,3-trifluoro-2-hydroxy-2-(3-methoxyphenyl)propanoyl)piperidin-4-yl)butoxy)benzamide] | 7.44 | 66% |  |  | 7% | No IP
O=C(c1ccc(OCCCCC2CCN(C(=O)C(O)(c3ccccc3)C(F)(F)F)CC2)cc1Cl)N1CCC1 (single isomer, unassigned) [Example 8-1, (R or S)-1-(4-(4-(4-(azetidine-1-carbonyl)-3-chlorophenoxy)butyl)piperidin-1-yl)-3,3,3-trifluoro-2-hydroxy-2-phenylpropan-1-one] | 7.48 | 55% | 6.48 | 10% |  | 
O=C(NC1CC1)c1ccc(OCCCCC2CCN(C(=O)[C@](O)(c3ccccc3)C(F)(F)F)CC2)cc1Cl (single isomer, unassigned) [Example 8-2, (R or S)-2-chloro-N-cyclopropyl-4-(4-(1-(3,3,3-trifluoro-2-hydroxy-2-phenylpropanoyl)piperidin-4-yl)butoxy) benzamide] | 7.89 | 68% | 6.28 | 29% |  | 
O=C(c1ccc(OCCCCC2CCN(C(=O)[C@](O)(c3ccccc3)C(F)(F)F)CC2)cc1Cl)N1CC[C@@H](O)C1 (single isomer, unassigned) [Example 8-3, (R or S)-1-(4-(4-(3-chloro-4-((R or S)-3-hydroxy-pyrrolidine-1-carbonyl)phenoxy)butyl)piperidin-1-yl)-3,3,3-trifluoro-2-hydroxy-2-phenylpropan-1-one] | 7.77 | 39% | 6.00 | 26% |  | 
O=C(c1ccc(OCCCCC2CCN(C(=O)C(O)(c3ccccc3)C(F)(F)F)CC2)cc1Cl)N1CC(F)(F)C1 (single isomer, unassigned) [Example 8-4, (R or S)-1-(4-(4-(3-chloro-4-(3,3-difluoroazetidine-1-carbonyl)phenoxy)butyl)piperidin-1-yl)-3,3,3-trifluoro-2-hydroxy-2-phenylpropan-1-one] | 7.92 | 60% | 7.32 | 18% |  | 
CC1(C)CCN(C(=O)c2ccc(OCCCCC3CCN(C(=O)C(O)(c4ccccc4)C(F)(F)F)CC3)cc2Cl)C1 (single isomer, unassigned) [Example 8-5, (R or S)-1-(4-(4-(3-chloro-4-(3,3-dimethyl-pyrrolidine-1-carbonyl)phenoxy)butyl)piperidin-1-yl)-3,3,3-trifluoro-2-hydroxy-2-phenylpropan-1-one] | 7.74 | 27% |  | 1% |  | No IP
O=C(N[C@H]1CCOC1)c1ccc(OCCCCC2CCN(C(=O)[C@](O)(c3ccccc3)C(F)(F)F)CC2)cc1Cl (single isomer, unassigned) [Example 8-6, 2-chloro-N-((S or R)-tetrahydrofuran-3-yl)-4-(4-(1-((R or S)-3,3,3-trifluoro-2-hydroxy-2-phenylpropanoyl)piperidin-4-yl)butoxy) benzamide] | 7.07 | 75% | 5.98 | 35% |  | 
O=C(c1ccc(OCCCCC2CCN(C(=O)[C@](O)(c3ccccc3)C(F)(F)F)CC2)cc1Cl)N1CCC[C@H]1CO (single isomer, unassigned) [Example 8-7, (R or S)-1-(4-(4-(3-chloro-4-((S or R)-2-(hydroxymethyl)pyrrolidine-1-carbonyl)phenoxy)butyl)piperidin-1-yl)-3,3,3-trifluoro-2-hydroxy-2-phenylpropan-1-one] | 8.15 | 48% | 6.88 | 42% |  | 
O=C(c1ccc(OCCCCC2CCN(C(=O)[C@](O)(c3ccccc3)C(F)(F)F)CC2)cc1Cl)N1CCC[C@@H]1CO (single isomer, unassigned) [Example 8-8, (R or S)-1-(4-(4-(3-chloro-4-((R or S)-2-(hydroxymethyl)pyrrolidine-1-carbonyl)phenoxy)butyl)piperidin-1-yl)-3,3,3-trifluoro-2-hydroxy-2-phenylpropan-1-one] | 7.68 | 44% | 6.19 | 27% |  | 
O=C(NCC(F)F)c1ccc(OCCCCC2CCN(C(=O)[C@](O)(c3ccccc3)C(F)(F)F)CC2)cc1Cl (single isomer, unassigned) [Example 8-9, (R or S)-2-chloro-N-(2,2-difluoroethyl)-4-(4-(1-(3,3,3-trifluoro-2-hydroxy-2-phenylpropanoyl)piperidin-4-yl)butoxy) benzamide] | 7.03 | 82% | 6.07 | 34% |  | 
CCNC(=O)c1ccc(OCCCCC2CCN(C(=O)[C@](O)(c3ccccc3)C(F)(F)F)CC2)cc1Cl (single isomer, unassigned) [Example 8-10, (R or S)-2-chloro-N-ethyl-4-(4-(1-(3,3,3-trifluoro-2-hydroxy-2-phenylpropanoyl)piperidin-4-yl)butoxy) benzamide] | 7.52 | 76% | 6.14 | 28% |  | 
CC(C)(C)OC(=O)NC1CN(C(=O)c2ccc(OCCCCC3CCN(C(=O)[C@](O)(c4ccccc4)C(F)(F)F)CC3)cc2Cl)C1 (single isomer, unassigned) [Example 8-11, (R or S)-tert-butyl 1-(2-chloro-4-(4-(1-(3,3,3-trifluoro-2-hydroxy-2-phenylpropanoyl)piperidin-4-yl)butoxy)benzoyl) azetidin-3-ylcarbamate] | 7.74 | 56% | 6.28 | 32% |  | 
CN(C(=O)c1ccc(OCCCCC2CCN(C(=O)[C@](O)(c3ccccc3)C(F)(F)F)CC2)cc1Cl)C1CC1 (single isomer, unassigned) [Example 8-12, (R or S)-2-chloro-N-cyclopropyl-N-methyl-4-(4-(1-(3,3,3-trifluoro-2-hydroxy-2-phenylpropanoyl)piperidin-4-yl)butoxy) benzamide] | 7.80 | 64% | 6.45 | 7% |  | 
CN(C(=O)c1ccc(OCCCCC2CCN(C(=O)[C@](O)(c3ccccc3)C(F)(F)F)CC2)cc1Cl)C1COC1 (single isomer, unassigned) [Example 8-13, (R or S)-2-chloro-N-methyl-N-(oxetan-3-yl)-4-(4-(1-(3,3,3-trifluoro-2-hydroxy-2-phenylpropanoyl)piperidin-4-yl)butoxy) benzamide] | 7.66 | 73% | 6.39 | 29% |  | 
O=C(c1ccc(OCCCCC2CCN(C(=O)C(O)(c3ccccc3)C(F)(F)F)CC2)cc1Cl)N1C[C@H]2CC[C@@H]1C2 (single isomer, unassigned) [Example 8-14, (R or S)-1-(4-(4-(4-((1R,4S)-2-azabicyclo[2.2.1]heptane-2-carbonyl)-3-chlorophenoxy)butyl)piperidin-1-yl)-3,3,3-trifluoro-2-hydroxy-2-phenylpropan-1-one] | 7.42 | 48% | 6.64 | 19% |  | 
O=C(c1ccc(OCCCCC2CCN(C(=O)C(O)(c3ccccc3)C(F)(F)F)CC2)cc1Cl)N1C[C@@H]2CC[C@H]1C2 (single isomer, unassigned) [Example 8-15, (R or S)-1-(4-(4-(4-((1S,4R)-2-azabicyclo[2.2.1]heptane-2-carbonyl)-3-chlorophenoxy)butyl)piperidin-1-yl)-3,3,3-trifluoro-2-hydroxy-2-phenylpropan-1-one] | 7.19 | 36% | 6.39 | 9% |  | 
CN(C(=O)c1ccc(OCCCCC2CCN(C(=O)[C@](O)(c3ccccc3)C(F)(F)F)CC2)cc1Cl)[C@H]1CCOC1 (single isomer, unassigned) [Example 8-16, 2-chloro-N-methyl-N-((S or R)-tetrahydro-furan-3-yl)-4-(4-(1-((R or S)-3,3,3-trifluoro-2-hydroxy-2-phenylpropanoyl)piperidin-4-yl)butoxy) benzamide] | 8.00 | 71% | 6.94 | 32% |  | 
